Reference: US10941152B2, “Pyrazole compounds as modulators of FSHR and uses thereof” (TOCOPHERX, INC., priority 2014, dated 2021)

Columns and labels:
[1] = target: T1, follicle-stimulating hormone (FSH) receptor (Rattus norvegicus, UniProt P20395); test: Rat granulosa EC50 FSH (Assay B); assay type: cell-based
T1 construct: endogenous in cells; host or cells: rat granulosa cells
T1 sequence (P20395 18-692): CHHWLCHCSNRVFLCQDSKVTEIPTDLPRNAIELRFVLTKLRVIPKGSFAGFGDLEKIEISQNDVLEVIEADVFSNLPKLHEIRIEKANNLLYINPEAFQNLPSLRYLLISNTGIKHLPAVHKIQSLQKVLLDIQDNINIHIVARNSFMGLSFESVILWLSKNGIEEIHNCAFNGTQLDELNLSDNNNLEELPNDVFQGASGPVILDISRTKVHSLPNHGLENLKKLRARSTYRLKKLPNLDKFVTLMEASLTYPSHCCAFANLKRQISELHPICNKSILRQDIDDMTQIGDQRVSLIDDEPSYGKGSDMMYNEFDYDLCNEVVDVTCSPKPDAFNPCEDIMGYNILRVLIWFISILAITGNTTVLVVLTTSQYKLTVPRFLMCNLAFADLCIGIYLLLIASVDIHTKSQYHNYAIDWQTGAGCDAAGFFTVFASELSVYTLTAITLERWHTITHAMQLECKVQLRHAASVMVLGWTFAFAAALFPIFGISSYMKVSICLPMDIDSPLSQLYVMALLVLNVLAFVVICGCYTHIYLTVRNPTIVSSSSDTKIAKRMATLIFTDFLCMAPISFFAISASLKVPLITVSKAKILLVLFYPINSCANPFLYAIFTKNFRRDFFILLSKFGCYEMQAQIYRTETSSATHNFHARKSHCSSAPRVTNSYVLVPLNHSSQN
Experimental: Example 25. Rat granulosa EC50 FSH (Assay B)
The assay was performed pursuant to the teaching of Yanofsky et al. (2006) Allosteric activation of the follicle-stimulating hormone (FSH) receptor by selective, nonpeptide agonists (JBC 281(19): 13226-13233, which is incorporated by reference in the disclosure of the invention).

FSHR = target: T2, FSHR (Homo sapiens, UniProt P23945); test: EC50 of cyclic AMP production in CHO FSHR cells + EC20 FSH (Assay A); assay type: cell-based; conditions: cyclic AMP production in CHO FSHR cells + EC20 FSH (0.265 pM), HTRF
T2 construct: expressed in transfected cells; host or cells: CHO (Cho-FSHR-LUC-1-1-43)
T2 sequence (P23945 18-695): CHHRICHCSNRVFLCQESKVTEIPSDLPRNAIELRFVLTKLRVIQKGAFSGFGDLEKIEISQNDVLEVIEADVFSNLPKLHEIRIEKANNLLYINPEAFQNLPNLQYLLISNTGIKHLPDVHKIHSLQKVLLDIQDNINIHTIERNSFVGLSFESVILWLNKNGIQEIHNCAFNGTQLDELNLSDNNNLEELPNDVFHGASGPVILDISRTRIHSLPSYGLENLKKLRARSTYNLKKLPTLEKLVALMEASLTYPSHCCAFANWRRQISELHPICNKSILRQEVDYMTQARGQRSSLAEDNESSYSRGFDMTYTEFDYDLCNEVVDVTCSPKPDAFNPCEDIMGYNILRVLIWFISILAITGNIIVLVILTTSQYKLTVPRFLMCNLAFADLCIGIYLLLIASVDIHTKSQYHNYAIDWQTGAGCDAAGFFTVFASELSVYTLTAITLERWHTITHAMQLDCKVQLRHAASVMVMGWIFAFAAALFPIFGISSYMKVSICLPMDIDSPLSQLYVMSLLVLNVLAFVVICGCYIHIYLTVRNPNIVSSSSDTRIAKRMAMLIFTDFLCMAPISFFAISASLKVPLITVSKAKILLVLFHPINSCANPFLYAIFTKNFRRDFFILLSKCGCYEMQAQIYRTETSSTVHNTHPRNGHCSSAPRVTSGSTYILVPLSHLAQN
Experimental: Example 24. EC50 of cyclic AMP production in CHO FSHR cells+EC20 FSH (Assay A)
2500 Cho-FSHR-LUC-1-1-43 cells were plated per well in 5 al of phenol red free DMEM/F12+1% FBS. Cells were plated in 384 well, solid white low volume plates (Greiner 784075) by Multidrop. Cells were assayed by adding 100 al of 2×EC20 FSH/IBMX in DMEM/F12+0.1% BSA) by Multidrop to 2 al of test compound stamped in 384 well plates (compounds are diluted 1:50). The final FSH concentration was 0.265 pM, and the final IBMX concentration was 200 μM. The compound plate map was as follows: Column 1: 2 μl of DMSO; Column 2: 2 μl of DMSO; Columns 3-12 and 13-24: 2 μl of test compound, diluted 1:4 in 100% DMSO, or 2 μl of FSH, diluted 1:4 in DMEM/F12+0.1% BSA. The starting concentration for FSH was 50 nM (final concentration was 0.5 nM). Furthermore, Column 23 contained 2 μl of EC100 FSH reference (100×) (diluted in DMEM/F12+0.1% BSA) at a final concentration of 0.5 nM, and Column 24 contained 2 μl of 1 mM AS707664/2 reference compound 2. 5 μl of compound+EC20 FSH mixture were transferred to cell plates (1:2 dilution into 5 μl of cell media) The plates were incubated at 37° C. for 1 h. 10 μl of mixed HTRF (CisBio #62AM4PEC) reagents were added per well and incubated at room temperature for 1 h. The plates were read on Envision using the cAMP HTRF—low volume 384 well protocol. The readout was the calculated fluorescence ratio (665 nm/620 nm). Values given in percent (%) indicate the percental effect (response) at a certain concentration of agonist relative to the maximum response of the FSH standard.

Compound	EC50 [1]	EC50 (FSHR)
COc1cc(OC)cc(-n2nc(C(=O)N3CC[S+]([O-])CC3(C)C)c3c2-c2cc(-c4ccn(C)n4)c(OC)cc2OC3)c1 (centres unmarked) [Compound 39, (1-(3,5-dimethoxyphenyl)-7-methoxy-8-(1-methyl-1H-pyrazol-3-yl)-1,4-dihydrochromeno[4,3-c]pyrazol-3-yl)-(S-oxo-3,3-dimethylthiomorpholino)methanone]	101 to 500 nM	10 to 100 nM
COc1cc2c(cc1-c1ccn(C)n1)-c1c(c(C(=O)N3CC[S+]([O-])CC3(C)C)nn1-c1cc(Cl)cc(Cl)c1)CO2 (centres unmarked) [Compound 5, 4-{[1-(3,5-dichlorophenyl)-7-methoxy-8-(1-methyl-1H-pyrazol-3-yl)-1H,4H-chromeno[4,3-c]pyrazol-3-yl]carbonyl}-3,3-dimethyl-1$1^4,4-thiomorpholin-1-one]	101 to 500 nM	10 to 100 nM
COc1cc2c(cc1-c1ccn(C)n1)-c1c(c(C(=O)N3CCOCC3(C)C)nn1-c1cc(F)cc(F)c1)CO2 [Compound 51, (1-(3,5-difluorophenyl)-7-methoxy-8-(1-methyl-1H-pyrazol-3-yl)-1,4-dihydrochromeno[4,3-c]pyrazol-3-yl)(3,3-dimethylmorpholino)methanone]	101 to 500 nM	10 to 100 nM
COc1cc2c(cc1-c1ccn(C)n1)-c1c(c(C(=O)N(C)C(C)(C)C)nn1-c1cc(Cl)cc(Cl)c1)CO2 [Compound 4, N-tert-butyl-1-(3,5-dichlorophenyl)-7-methoxy-N-methyl-8-(1-methyl-1H-pyrazol-3-yl)-1,4-dihydrochromeno[4,3-c]pyrazole-3-carboxamide]	> 500 nM	10 to 100 nM
COc1cc2c(cc1-c1cncc(N)c1)-c1c(c(C(=O)N(C)C(C)(C)C)nn1-c1cc(Cl)cc(Cl)c1)CO2 [Compound 20, 8-(5-aminopyridin-3-yl)-N-tert-butyl-1-(3,5-dichlorophenyl)-7-methoxy-N-methyl-1,4-dihydrochromeno[4,3-c]pyrazole-3-carboxamide]	101 to 500 nM	< 10 nM
COc1cc2c(cc1-c1cncc(C#N)c1)-c1c(c(C(=O)N3CCC(O)CC3(C)C)nn1-c1cc(F)cc(F)c1)CO2 (centres unmarked) [Compound 50, 5-(1-(3,5-difluorophenyl)-3-(4-hydroxy-2,2-dimethylpiperidine-1-carbonyl)-7-methoxy-1,4-dihydrochromeno[4,3-c]pyrazol-8-yl)nicotinonitrile]	101 to 500 nM	< 10 nM
COc1cc2c(cc1-c1ccccc1C(N)=O)-c1c(c(C(=O)N(C)C(C)(C)C)nn1-c1cc(Cl)cc(Cl)c1)CO2 [Compound 98, N-tert-butyl-8-(2-carbamoylphenyl)-1-(3,5-dichlorophenyl)-7-methoxy-N-methyl-1,4-dihydrochromeno[4,3-c]pyrazole-3-carboxamide]	101 to 500 nM	< 10 nM

Second part, the molecule after the results:

EC50 [1]	EC50 (FSHR)	Compound
10 to 100 nM	< 10 nM	COc1cc2c(cc1-c1ccn(C)n1)-c1c(c(C(=O)N3CCN(C#N)CC3(C)C)nn1-c1ccsc1)CO2 [Compound 184, 4-(7-methoxy-8-(1-methyl-1H-pyrazol-3-yl)-1-(thiophen-3-yl)-1,4-dihydrochromeno[4,3-c]pyrazole-3-carbonyl)-3,3-dimethylpiperazine-1-carbonitrile]
10 to 100 nM	< 10 nM	COc1cc2c(cc1-c1c(C)nn(CC(N)=O)c1C)-c1c(c(C(=O)N(C)C(C)(C)C)nn1-c1cc(Cl)cc(Cl)c1)CO2 [Compound 139, 8-(1-(2-amino-2-oxoethyl)-3,5-dimethyl-1H-pyrazol-4-yl)-N-tert-butyl-1-(3,5-dichlorophenyl)-7-methoxy-N-methyl-1,4-dihydrochromeno[4,3-c]pyrazole-3-carboxamide]
101 to 500 nM	< 10 nM	COc1cc(OC)cc(-n2nc(C(=O)N(C)C(C)(C)C)c3c2-c2cc(-c4nn(C)cc4C#N)c(OC)cc2OC3)c1 [Compound 146, N-tert-butyl-8-(4-cyano-1-methyl-1H-pyrazol-3-yl)-1-(3,5-dimethoxyphenyl)-7-methoxy-N-methyl-1,4-dihydrochromeno[4,3-c]pyrazole-3-carboxamide]
101 to 500 nM	10 to 100 nM	COc1cc2c(cc1-c1cc(C)cnc1OC)-c1c(c(C(=O)N(C)C(C)(C)C)nn1-c1cc(Cl)cc(Cl)c1)CO2 [Compound 189, N-tert-butyl-1-(3,5-dichlorophenyl)-7-methoxy-8-(2-methoxy-5-methylpyridin-3-yl)-N-methyl-1,4-dihydrochromeno[4,3-c]pyrazole-3-carboxamide]
10 to 100 nM	< 10 nM	COc1cc2c(cc1-c1cnn(CCO)c1)-c1c(c(C(=O)N3CCOCC3(C)C)nn1-c1cc(F)cc(Cl)c1)CO2 [Compound 78, (1-(3-chloro-5-fluorophenyl)-8-(1-(2-hydroxyethyl)-1H-pyrazol-4-yl)-7-methoxy-1,4-dihydrochromeno[4,3-c]pyrazol-3-yl)(3,3-dimethylmorpholino)methanone]
10 to 100 nM	< 10 nM	COc1cc2c(cc1-c1cnn(CCO)c1)-c1c(c(C(=O)N(C)C(C)(C)C)nn1-c1cc(Cl)cc(Cl)c1)CO2 [Compound 1, N-tert-butyl-1-(3,5-dichlorophenyl)-8-(1-(2-hydroxyethyl)-1H-pyrazol-4-yl)-7-methoxy-N-methyl-1,4-dihydrochromeno[4,3-c]pyrazole-3-carboxamide]
10 to 100 nM	< 10 nM	COc1cc2c(cc1-c1cc(C)cnc1F)-c1c(c(C(=O)N(C)C(C)(C)C)nn1-c1ccsc1)CO2 [Compound 62, N-tert-butyl-8-(2-fluoro-5-methylpyridin-3-yl)-7-methoxy-N-methyl-1-(thiophen-3-yl)-1,4-dihydrochromeno[4,3-c]pyrazole-3-carboxamide]
101 to 500 nM	< 10 nM	COc1cc2c(cc1-c1cccc(C#N)c1F)-c1c(c(C(=O)N(C)C(C)(C)C)nn1-c1cc(Cl)cc(Cl)c1)CO2 [Compound 19, N-tert-butyl-8-(3-cyano-2-fluorophenyl)-1-(3,5-dichlorophenyl)-7-methoxy-N-methyl-1,4-dihydrochromeno[4,3-c]pyrazole-3-carboxamide]
101 to 500 nM	< 10 nM	COc1cc2c(cc1-c1cnc(C)c(C(N)=O)c1)-c1c(c(C(=O)N(C)C(C)(C)C)nn1-c1cc(Cl)cc(Cl)c1)CO2 [Compound 170]
